Consider twelve molecules from EP1184374A1, “Carboxamide derivatives of pyrrolidine, piperidine and hexahydroazepine for the treatment of thrombosis disorders” (ORTHO PHARMACEUTICAL CORPORATION, priority 1996, dated 1997).

Values joined by “and” are separate entries in the source; they are usually repeats but may differ in a detail not shown here. Identical values can stand only once.

Experiment [1] relates to collagen- or ADP-induced ex vivo platelet aggregation. The experiment in a line: Ex vivo dog study (platelet aggregation, hemodynamics, bleeding time, coagulation, cell counts). The experiment is classed as in vivo, dogs. The procedure: Adult mongrel dogs (8-13 kg) were anesthetized with sodium pentobarbital (35 mg/kg, i.v.) and artificially respired. Arterial blood pressure and heart rate were measured using a Millar catheter-tip pressure transducer inserted in a femoral artery. Another Millar transducer was placed in the left ventricle (LV) via a carotid artery to measure LV end diastolic pressure and indices of myocardial contractility. A lead II electrocardiogram was recorded from limb electrodes. Catheters were placed in a femoral artery and vein to sample blood and infuse drugs, respectively. Responses were continuously monitored using a Modular Instruments data aquisition system.
Arterial blood samples (5-9 ml) were withdrawn into tubes containing 3.8% sodium citrate to prepare platelet rich plasma (PRP) and to determine effects on coagulation parameters: prothrombin time (PT) and activated partial thromboplastin time (APTT). Separate blood samples (1.5 ml) were withdrawn in EDTA to determine hematocrit and cell counts (platelets, RBC's and white cells). Template bleeding times were obtained from the buccal surface using a symplate incision devise and Whatman filter paper.
Aggregation of PRP was performed using a BioData aggregometer. Aggregation of whole blood used a Chronolog impedance aggregometer. PT and APTT were determined on either a BioData or ACL 3000+ coagulation analyser. Cells were counted with a Sysmex K-1000.
Compounds were solubilized in a small volume of dimethylformamide (DMF) and diluted with saline to a final concentration of 10% DMF. Compounds were administered by the intravenous route with a Harvard infusion pump. Doses was administered over a 15 min interval at a constant rate of 0.33 ml/min. Data were obtained after each dose and in 30 min intervals following the end of drug administration. Oral doses were administered as aqueous solutions via syringe.

Experiment [2] concerns gel-filtered platelets. The experiment in a line: In vitro inhibition of thrombin-induced gel-filtered platelet aggregation. The experiment is classed as cell-based. Conditions: Homo sapiens; for inhibition at 50 µM: read-out: Platelet Aggregation % Inh. (50µM). The procedure:
IN VITRO INHIBITION OF THROMBIN-INDUCED GEL-FILTERED PLATELET AGGREGATION ASSAY.
The percentage of platelet aggregation is calculated as an increase in light transmission of compound-treated platelet concentrate vs. control-treated platelet concentrate. Human blood is obtained from drug free, normal donors into tubes containing 0.13M sodium citrate. Platelet rich plasma (PRP) is collected by centrifugation of whole blood at 200 x g for 10 min at 25°C. The PRP (5 mL) is gel filtered through Sepharose 2B (bed volume 50 mL), and the platelet count is adjusted to 2x10^7 platelets per sample. The following constituents are added to a siliconized cuvette: concentrated platelet filtrate and Tyrode's buffer (0.14M NaCl, 0.0027MKCl, 0.012M NaHCO3, 0.76 mM Na2HPO4, 0.0055M glucose, 2 mg/mL BSA and 5.0mM HEPES @ pH 7.4) in an amount equal to 350 µl, 50 µl of 20 mM calcium and 50 µl of the test compound. Aggregation is monitored in a BIODATA aggregometer for the 3 min following the addition of agonist (thrombin 50 µl of 1 unit/mL).

The target of experiment [3] is GPIIb/IIIa (Homo sapiens, UniProt P05106+P08514). The experiment in a line: In vitro solid phase purified glycoprotein IIb/IIIa binding assay (biotinylated fibrinogen binding). Particulars: for inhibition at 50 µM: read-out: Fibrinogen Binding % Inh. (50 µM). The procedure: IN VITRO SOLID PHASE PURIFIED GLYCOPROTEIN IIB/IIIA BINDING ASSAY.
The plate is covered and incubated overnight at 4°C. The GPIIb/IIa solution is discarded and 150 µl of 5% BSA is added and incubated at RT for 1-3 h. The plate is washed extensively with modified Tyrodes buffer. Biotinylated fibrinogen (25 µl/well) at 2 x final concentration is added to the wells that contain the test compounds (25 µl/well). The plate is covered and incubated at RT for 2-4 h. Twenty minutes prior to incubation completion, one drop of Reagent A (Vecta Stain ABC Horse Radish Peroxidase kit, Vector Laboratories, Inc.) and one drop Reagent B are added with mixing to 5 mL modified Tyrodes buffer mix and let stand. The ligand solution is discarded and the plate washed (5 x 200 µl/well) with modified Tyrodes buffer. Vecta Stain HRP-Biotin-Avidin reagent (50 µl/well, as prepared above) is added and incubated at RT for 15 min. The Vecta Stain solution is discarded and the wells washed (5 x 200 µl/well) with modified Tyrodes buffer. Developing buffer (10 mL of 50 mM citrate/phosphate buffer @ pH 5.3, 6 mg o-phenylenediamine, 6 µl 30% H2O2; 50 µl/well) is added and incubated at RT for 3-5 min, and then 2N H2SO4 (50 µl/well) is added. The absorbance is read at 490 nm.

Chain of GPIIb/IIIa (P08514 32-887 limits assumed): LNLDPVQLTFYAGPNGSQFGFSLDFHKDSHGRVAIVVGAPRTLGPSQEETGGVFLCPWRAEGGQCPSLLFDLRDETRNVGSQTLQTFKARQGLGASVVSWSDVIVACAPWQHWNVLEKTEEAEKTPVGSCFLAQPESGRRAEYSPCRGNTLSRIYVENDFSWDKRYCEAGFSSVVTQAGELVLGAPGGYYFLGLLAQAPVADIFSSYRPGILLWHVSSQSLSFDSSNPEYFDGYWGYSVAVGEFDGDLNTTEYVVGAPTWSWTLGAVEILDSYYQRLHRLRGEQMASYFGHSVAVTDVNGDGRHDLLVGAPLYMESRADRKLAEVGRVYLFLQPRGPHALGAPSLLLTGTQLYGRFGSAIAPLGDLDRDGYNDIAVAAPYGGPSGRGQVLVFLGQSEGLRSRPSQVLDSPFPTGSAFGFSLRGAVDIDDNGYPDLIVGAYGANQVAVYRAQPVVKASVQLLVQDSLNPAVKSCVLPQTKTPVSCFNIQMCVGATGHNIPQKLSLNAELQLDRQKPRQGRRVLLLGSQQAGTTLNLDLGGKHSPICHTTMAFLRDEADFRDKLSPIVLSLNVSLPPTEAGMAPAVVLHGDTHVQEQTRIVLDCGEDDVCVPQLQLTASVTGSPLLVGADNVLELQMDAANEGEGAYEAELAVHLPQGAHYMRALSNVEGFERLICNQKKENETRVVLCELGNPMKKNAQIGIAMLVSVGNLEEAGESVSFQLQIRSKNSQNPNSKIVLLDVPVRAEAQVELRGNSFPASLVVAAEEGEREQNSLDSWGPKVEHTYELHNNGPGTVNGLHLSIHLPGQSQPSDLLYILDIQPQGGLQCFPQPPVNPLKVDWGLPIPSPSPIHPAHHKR
Chain of GPIIb/IIIa (P08514 891-1039 partner limits assumed): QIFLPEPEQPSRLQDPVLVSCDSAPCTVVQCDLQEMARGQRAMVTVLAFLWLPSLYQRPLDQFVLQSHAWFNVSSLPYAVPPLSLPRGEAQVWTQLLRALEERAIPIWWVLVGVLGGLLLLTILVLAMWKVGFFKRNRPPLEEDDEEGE
Chain of GPIIb/IIIa (P05106 27-788): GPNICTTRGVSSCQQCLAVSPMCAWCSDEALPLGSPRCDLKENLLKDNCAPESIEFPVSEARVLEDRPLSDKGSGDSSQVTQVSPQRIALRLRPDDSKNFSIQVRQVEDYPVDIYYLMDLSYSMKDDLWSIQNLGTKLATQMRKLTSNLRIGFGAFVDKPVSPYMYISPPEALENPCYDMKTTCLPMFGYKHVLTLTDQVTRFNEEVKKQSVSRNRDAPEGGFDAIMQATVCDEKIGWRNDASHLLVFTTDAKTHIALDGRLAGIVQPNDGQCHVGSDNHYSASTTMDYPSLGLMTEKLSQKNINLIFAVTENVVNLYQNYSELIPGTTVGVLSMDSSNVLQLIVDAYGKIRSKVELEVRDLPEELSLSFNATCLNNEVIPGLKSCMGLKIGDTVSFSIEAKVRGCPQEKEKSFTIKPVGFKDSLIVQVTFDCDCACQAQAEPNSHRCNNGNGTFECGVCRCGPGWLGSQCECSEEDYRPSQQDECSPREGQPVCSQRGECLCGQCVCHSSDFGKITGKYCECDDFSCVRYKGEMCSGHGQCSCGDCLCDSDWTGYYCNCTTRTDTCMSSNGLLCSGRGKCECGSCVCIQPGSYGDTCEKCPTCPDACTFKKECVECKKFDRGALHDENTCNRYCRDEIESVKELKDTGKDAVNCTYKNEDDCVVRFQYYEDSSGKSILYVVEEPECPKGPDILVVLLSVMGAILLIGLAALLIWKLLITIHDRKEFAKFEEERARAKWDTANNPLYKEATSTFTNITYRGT

Turning to `O=C(N[C@@H](CNC(=O)[C@@H]1CCCN(C(=O)CCC2CCNCC2)C1)C(=O)O)OCc1ccccc1` [Compound 23, N-3-(4-Piperidinepropionyl)-R-(-)nipecotyl-[(S)-2-benzyloxycarbonylamino-3-amino]propionic acid], the “Duration of >50% inhibition of collagen-induced ex vivo platelet aggregation” value in experiment [1] (intravenous dosing 0.1 mpk) is recorded as 60 min; in experiment [1] (oral dosing 1 mpk), 180 min; in experiment [1] (oral dosing 3 mpk), 150 min. For the same molecule, it took 27 nM to reach half-maximal inhibition in experiment [2] (IC50). Further, the results for the inhibition at 50 µM in experiment [2] and in experiment [3] were 97% and 100%, respectively.
Regarding `CN1CCN(CCC(=O)N2CCCC(C(=O)NC(CC(=O)O)c3cnc4ccccc4c3)C2)CC1` (centres unmarked) [Compound 15, N-3-(4-N-Methyl-piperazinepropionyl)-nipecotyl-[3-amino-3-(3-quinolinyl)]propionic acid], the “Duration of >50% inhibition of collagen- or ADP-induced ex vivo platelet aggregation” value in experiment [1] (intravenous dosing 1 mpk) was 30 min; in experiment [1] (oral dosing 10 mpk), 120 min. For the same molecule, the IC50 in experiment [2] stood at 1900 nM; in experiment [3], 9.1 nM. In addition, the inhibition at 50 µM in experiment [2] came to 92.2%; in experiment [3], 100%.
For the molecule `Cc1ccc([C@H](CC(=O)O)NC(=O)[C@@H]2CCCN(C(=O)CCC3CCNCC3)C2)cn1` [Compound 31, N-3-(4-Piperidinepropionyl)-R-(-)nipecotyl-[(S)-3-amino-3-(6-methyl-3-pyridyl)]propionic acid], the “Duration of >50% inhibition of collagen-induced ex vivo platelet aggregation” value in experiment [1] (intravenous dosing 0.3 mpk, 0.3 mg/kg) is 120 min and 60 min; in experiment [1] (oral dosing 3 mpk, 3 mg/kg), >180 min and 180 min. In experiment [2], the IC50 came to 45 nM. The inhibition at 50 µM in experiment [2] and in experiment [3] was 100% in each case.
As for `O=C(O)C[C@H](NC(=O)[C@@H]1CCCN(C(=O)N2CCC(C3CCNCC3)CC2)C1)c1cccnc1` [Compound 27, N-[(4,4'-Bipiperidin-1-yl-)carbonyl]-R-(-)-nipecotyl-[(S)-3-amino-3-(3-pyridyl)] propionic acid], the “Duration of >50% inhibition of collagen-induced ex vivo platelet aggregation” value in experiment [1] (intravenous dosing 0.3 mpk) worked out at 60 min; in experiment [1] (oral dosing 3 mpk), 120 min. The molecule also came in with an IC50 in experiment [2] of 450 nM. Moreover, the inhibition at 50 µM in experiment [2] and in experiment [3] was 100% in each case.
On to `CC(C)(C)C#CC(CC(=O)O)NC(=O)C1CCCN(C(=O)CCC2CCNCC2)C1` (single isomer, unassigned) [Compound 19], for which the entries for the “Duration of >50% inhibition of collagen- or ADP-induced ex vivo platelet aggregation” value in experiment [1] (intravenous dosing 1 mpk) and in experiment [1] (oral dosing 10 mpk) were 30 min and 90 min, respectively. Besides, the half-maximal inhibitory concentration (IC50) stood at 79 nM in experiment [2] and 21 nM in experiment [3]. The inhibition at 50 µM is 92.1% in experiment [2] and 99% in experiment [3].
As to `COc1cccc(NC(=O)N[C@@H](CNC(=O)[C@@H]2CCCN(C(=O)CCC3CCNCC3)C2)C(=O)O)c1` [Compound 22, N-3-(4-Piperidinepropionyl)-R-(-)nipecotyl-[(S)-2-(3-methoxyanilino)carbonylamino-3-amino]propionic acid], the “Duration of >50% inhibition of collagen-induced ex vivo platelet aggregation” value in experiment [1] (intravenous dosing 0.3 mpk) stood at 180 min; in experiment [1] (oral dosing 3 mpk), 60 min. This molecule also showed an IC50 in experiment [2] of 46 nM. Further, the inhibition at 50 µM in experiment [2] amounted to 94%; in experiment [3], 100%.
In the case of `O=C(Nc1ccc2ccccc2c1)N[C@@H](CNC(=O)[C@@H]1CCCN(C(=O)CCC2CCNCC2)C1)C(=O)O` [Compound 28, N-3-(4-Piperidinepropionyl)-R-(-)nipecotyl-[(S)-2-(2-naphthylamino)carbonylamino-3-amino]propionic acid], the “Duration of >50% inhibition of collagen-induced ex vivo platelet aggregation” value in experiment [1] (oral dosing 3 mpk) turned out to be 120 min. Moreover, in experiment [2], the IC50 turned out to be 170 nM and the inhibition at 50 µM came out at 100%. The inhibition at 50 µM in experiment [3] is 100%.
`O=C(NC[C@H](NS(=O)(=O)Cc1ccccc1)C(=O)O)[C@@H]1CCCN(C(=O)CCC2CCNCC2)C1` [Compound 25, N-3-(4-Piperidinepropionyl)-R-(-)nipecotyl-[(S)-2-benzylsulfonylamino-3-amino]propionic acid]: the “Duration of >50% inhibition of collagen-induced ex vivo platelet aggregation” value is 30 min in experiment [1] (intravenous dosing 0.3 mpk) and 60 min in experiment [1] (oral dosing 3 mpk). In addition, it took 7 nM to reach half-maximal inhibition in experiment [2] (IC50). Further, the figures for the inhibition at 50 µM in experiment [2] and in experiment [3] were 97% and 100%, respectively.
As to `O=C(N[C@@H](CNC(=O)[C@@H]1CCCN(C(=O)CCC2CCNCC2)C1)C(=O)O)OCc1cccc(Cl)c1` [Compound 24, N-3-(4-Piperidinepropionyl)-R-(-)nipecotyl-[(S)-2-(3-chlorobenzyloxy)carbonylamino-3-amino]propionic acid], the figures for the “Duration of >50% inhibition of collagen-induced ex vivo platelet aggregation” value in experiment [1] (intravenous dosing 0.3 mpk) and in experiment [1] (oral dosing 3 mpk) were 90 min and 120 min, respectively. The concentration for half-maximal inhibition (IC50) amounted to 18 nM in experiment [2] and 0.4 nM in experiment [3]. For the same molecule, the inhibition at 50 µM in experiment [2] and in experiment [3] was 100% each time.
Consider `O=C(NCCc1ccccc1)N[C@@H](CNC(=O)[C@@H]1CCCN(C(=O)CCC2CCNCC2)C1)C(=O)O` [Compound 30, N-3-(4-Piperidinepropionyl)-R-(-)nipecotyl-[(S)-2-(2-phenethylamino)carbonylamino-3-amino]propionic acid], for which the results for the “Duration of >50% inhibition of collagen-induced ex vivo platelet aggregation” value in experiment [1] (intravenous dosing 0.3 mpk) and in experiment [1] (oral dosing 3 mpk) were 105 min and 180 min, respectively. In experiment [2], this molecule showed an IC50 of 190 nM. In addition, the inhibition at 50 µM in experiment [2] and in experiment [3] was 100% throughout.
As for `COc1cc(NC(=O)N[C@@H](CNC(=O)[C@@H]2CCCN(C(=O)CCC3CCNCC3)C2)C(=O)O)cc(OC)c1` [Compound 26, N-3-(4-Piperidinepropionyl)-R-(-)nipecotyl-[(S)-2-(3,5-dimethoxyanllino)carbonylamino-3-amino]propionic acid], the “Duration of >50% inhibition of collagen-induced ex vivo platelet aggregation” value in experiment [1] (oral dosing 3 mpk) came out at 60 min. Further, in experiment [2], the IC50 stood at 16 nM and the inhibition at 50 µM stood at 97%. Also, the inhibition at 50 µM in experiment [3] was 100%.
Regarding `O=C(O)C[C@H](NC(=O)[C@@H]1CCCN(C(=O)CCC2CCNCC2)C1)c1cccnc1` [Compound 21, N-3-(4-Piperidinepropionyl)-R-(-)-nipecotyl-[(S)-3-amino-3-(3-pyridyl)] propionic acid], the figures for the “Duration of >50% inhibition of collagen- or ADP-induced ex vivo platelet aggregation” value in experiment [1] (intravenous dosing 0.3 mpk) and in experiment [1] (oral dosing 1 mpk) were 150 min and 180 min, respectively. Also, inhibition in experiment [2] was half-maximal at 60 nM (IC50). Besides, the inhibition at 50 µM in experiment [2] and in experiment [3] was 100% in each case.

The term IC50 denotes the point on the concentration scale where inhibition reaches its midpoint.
